Laboratory results from patent US12492173B2, “Herbicidal substituted N-tetrazolyl aryl carboxamides” (Bayer Aktiengesellschaft, priority 2019, dated 2025).

What was measured:
Format in all cases: in vivo
Echinochloa crus-galli = assay: Pre-emergence herbicidal action, ECHCG; parameters: key to Herbicidal action against ECHCG: % activity: 100 = plants have died, 0 = like control plants; conditions: for herbicidal activity ECHCG: dosage 320 g/ha, scored visually after 3 weeks vs untreated controls (100% = plants have died)
How it was run: (§1)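 Weed seeds sown in sandy loam and covered; WP or EC formulations applied to soil surface as aqueous suspension or emulsion at 600 to 800 l/ha with 0.2% wetting agent. Greenhouse-grown, with damage scored visually after 3 weeks versus untreated controls (0% = like control, 100% = plants dead).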

Alopecurus myosuroides = assay: Post-emergence herbicidal action, ALOMY; parameters: key: % herbicidal action vs untreated; 100 = plants died, 0 = like control
How it was run: (§2)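 After sowing into sandy loam, plants grew 2 to 3 weeks under greenhouse conditions until one leaf, then got a spray of compound as aqueous suspension or emulsion. Roughly three weeks on, activity was estimated visually against untreated pots.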

Polygonum convolvulus = assay: Post-emergence herbicidal action, POLCO
How it was run: as §2

Veronica persica = assay: Post-emergence herbicidal action, VERPE; parameters: key: % herbicidal action vs untreated; 100 = plants died, 0 = like control
How it was run: as §2

Avena fatua = assay: Post-emergence herbicidal action, AVEFA; parameters: key: % herbicidal action vs untreated; 100 = plants died, 0 = like control
How it was run: as §2

Viola tricolor = assay: Pre-emergence herbicidal action, VIOTR; parameters: key to Herbicidal action against VIOTR: % activity: 100 = plants have died, 0 = like control plants; conditions: for herbicidal activity VIOTR: dosage 320 g/ha, scored visually after 3 weeks vs untreated controls (100% = plants have died)
How it was run: as §1

[1] = comparative experiment, 20 g of a.i./ha

SMILES | Herbicidal action against ECHCG (Echinochloa crus-galli; [1]) | herbicidal activity ECHCG (Echinochloa crus-galli) [%] | herbicidal action ALOMY (Alopecurus myosuroides; post-emergence, dosage 80 g/ha) [%] | herbicidal action POLCO (Polygonum convolvulus; post-emergence, dosage 80 g/ha) [%] | herbicidal action VERPE (Veronica persica; post-emergence, dosage 80 g/ha) [%] | herbicidal action AVEFA (Avena fatua; post-emergence, dosage 80 g/ha) [%] | Herbicidal action against VIOTR (Viola tricolor; [1]) | herbicidal activity VIOTR (Viola tricolor) [%] | herbicidal action ALOMY (Alopecurus myosuroides; Dosage 80 g/ha) | herbicidal action POLCO (Polygonum convolvulus; Dosage 80 g/ha) | herbicidal action VERPE (Veronica persica; Dosage 80 g/ha) | herbicidal action AVEFA (Avena fatua; Dosage 80 g/ha)
Cn1nnnc1NC(=O)c1ccc(C(F)(F)F)c(C[S+](C)[O-])c1Br (centres unmarked) [Example 1-381] | 90 | 100 | 80 | 80 | 100 | 100 | 90 | 100 | – | – | – | –
CCn1nnnc1NC(=O)c1ccc(C(F)F)c(CSC)c1C [Example 2-107] | – | 100 | – | – | – | – | – | 100 | 80 | 90 | 100 | 80
CCn1nnnc1NC(=O)c1ccc(C(F)(F)F)c(CSC)c1SC [Example 2-161] | – | 100 | 80 | 100 | 100 | 90 | – | 100 | – | – | – | –
CCn1nnnc1NC(=O)c1ccc(C(F)(F)F)c(CS(C)(=O)=O)c1SC [Example 2-163] | – | 100 | – | – | – | – | – | 100 | 90 | 90 | 100 | 100
CCn1nnnc1NC(=O)c1ccc(C(F)(F)F)c(CSC)c1Br [Example 2-380] | – | 100 | 80 | 90 | 100 | 100 | – | 100 | – | – | – | –
CCn1nnnc1NC(=O)c1ccc(C(F)(F)F)c(C[S+](C)[O-])c1Br (centres unmarked) [Example 2-381] | – | 100 | 80 | 90 | 100 | 100 | – | 100 | – | – | – | –
CCSCc1c(C(F)(F)F)ccc(C(=O)Nc2nnnn2CC)c1Br [Example 2-383] | – | 100 | 80 | 90 | 100 | 100 | – | 100 | – | – | – | –
CCCn1nnnc1NC(=O)c1ccc(C(F)(F)F)c(C[S+](C)[O-])c1Cl (centres unmarked) [Example 3-297] | – | 100 | 90 | 80 | 100 | 100 | – | 100 | – | – | – | –
CCCn1nnnc1NC(=O)c1ccc(C(F)(F)F)c(CSCC)c1Cl [Example 3-299] | – | 100 | – | – | – | – | – | 100 | 80 | 80 | 100 | 80
CCCn1nnnc1NC(=O)c1ccc(C(F)F)c(CSC)c1Cl [Example 3-320] | – | 100 | – | – | – | – | – | 100 | 80 | 90 | 100 | 90
CCCn1nnnc1NC(=O)c1ccc(C(F)(F)F)c(CSC)c1Br [Example 3-380] | – | 100 | – | – | – | – | – | 100 | 80 | 90 | 80 | 100
CCCn1nnnc1NC(=O)c1ccc(C(F)(F)F)c(C[S+](C)[O-])c1Br (centres unmarked) [Example 3-381] | – | 100 | 80 | 80 | 100 | 100 | – | 100 | – | – | – | –
CCCn1nnnc1NC(=O)c1ccc(C(F)(F)F)c(CSCC)c1Br [Example 3-383] | – | 100 | – | – | – | – | – | 100 | 80 | 90 | 100 | 90
